Source: ChEMBL document CHEMBL3526075, “Metabolism of the active metabolite of quetiapine, N-desalkylquetiapine in vitro” (Drug Metab Dispos, 2012)

How the values were obtained:
Format in all cases: ADME
[1] = test system: Liver microsome; assay: Drug metabolism in human liver microsomes assessed as 7-hydroxy-N-desalkylquetiapine formation at 3 uM after 30 mins by mass spectroscopy; details: 0.5 h
[2] = Activity of cytochrome P450 in human liver microsomes assessed as 7-hydroxy-N-desalkylquetiapine formation measured as substrate inhibition constant by LC-MS analysis
[3] = molecular target: T1, Cytochrome P450 2D6 (Homo sapiens, UniProt P10635); assay: Activity of human CYP2D6 expressed in supersomes co-expressing cytochrome P450 reductase assessed as metabolite M3 formation after 60 mins by LC-MS analysis; details: recombinant enzyme, 1 h
T1 sequence (P10635 whole entry): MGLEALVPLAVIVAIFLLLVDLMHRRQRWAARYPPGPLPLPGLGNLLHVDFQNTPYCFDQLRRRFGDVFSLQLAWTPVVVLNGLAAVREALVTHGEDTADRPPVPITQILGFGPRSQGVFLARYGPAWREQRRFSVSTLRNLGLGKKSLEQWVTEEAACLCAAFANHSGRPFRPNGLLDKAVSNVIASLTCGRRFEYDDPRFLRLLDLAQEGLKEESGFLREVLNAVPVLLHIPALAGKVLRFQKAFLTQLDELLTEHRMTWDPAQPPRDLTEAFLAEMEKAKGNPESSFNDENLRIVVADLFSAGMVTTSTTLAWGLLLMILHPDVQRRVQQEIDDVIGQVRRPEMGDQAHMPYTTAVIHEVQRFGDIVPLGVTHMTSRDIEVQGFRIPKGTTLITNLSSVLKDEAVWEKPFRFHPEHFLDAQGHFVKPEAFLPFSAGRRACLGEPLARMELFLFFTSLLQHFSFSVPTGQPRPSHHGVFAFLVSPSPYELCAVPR

[4] = molecular target: CYP2D6 (Homo sapiens, UniProt P10635); assay: Activity of human CYP2D6 expressed in supersomes co-expressing cytochrome P450 reductase assessed as substrate depletion after 60 mins by LC-MS analysis; details: read-out: Drug metabolism
CYP2D6, sequence (P10635 whole entry): as above

[5] = molecular target: T1, Cytochrome P450 2D6; assay: Activity of human CYP2D6 expressed in supersomes co-expressing cytochrome P450 reductase assessed as intrinsic clearance per pmol protein by LC-MS analysis; details: recombinant enzyme
[6] = test system: Liver microsome; assay: Drug metabolism in human liver microsomes assessed as N-desalkylquetiapine sulfoxide formation at 3 uM after 30 mins by mass spectroscopy; details: 0.5 h
[7] = test system: Liver microsome; assay: Drug metabolism in human liver microsomes assessed as 7-hydroxy-N-desalkylquetiapine formation at 3 uM after 30 mins by mass spectroscopy in presence of CYP2C19 inhibitor benzylnirvanol; details: 0.5 h
[8] = test system: Liver microsome; assay: Drug metabolism in human liver microsomes assessed as N-desalkylquetiapine sulfoxide formation at 3 uM after 30 mins by mass spectroscopy in presence of CYP2C19 inhibitor benzylnirvanol; details: 0.5 h
[9] = molecular target: T1, Cytochrome P450 2D6; assay: Activity of human CYP2D6 expressed in supersomes co-expressing cytochrome P450 reductase assessed as N-desalkylquetiapine sulfoxide formation after 60 mins by LC-MS analysis; details: recombinant enzyme, 1 h
[10] = test system: cytochrome P450; assay: Activity of cytochrome P450 in human liver microsomes by LC-MS analysis
[11] = molecular target: T1, Cytochrome P450 2D6; assay: Activity of human CYP2D6 expressed in supersomes co-expressing cytochrome P450 reductase assessed as 7-hydroxy-N-desalkylquetiapine formation after 60 mins by LC-MS analysis; details: recombinant enzyme, 1 h
[12] = molecular target: CYP3A4 (Homo sapiens, UniProt P08684); assay: Activity of human CYP3A4 expressed in xenosomes assessed as substrate depletion after 60 mins by LC-MS analysis; details: recombinant CYP3A4 expressed in xenosomes, read-out: Drug metabolism
CYP3A4, sequence (P08684 whole entry): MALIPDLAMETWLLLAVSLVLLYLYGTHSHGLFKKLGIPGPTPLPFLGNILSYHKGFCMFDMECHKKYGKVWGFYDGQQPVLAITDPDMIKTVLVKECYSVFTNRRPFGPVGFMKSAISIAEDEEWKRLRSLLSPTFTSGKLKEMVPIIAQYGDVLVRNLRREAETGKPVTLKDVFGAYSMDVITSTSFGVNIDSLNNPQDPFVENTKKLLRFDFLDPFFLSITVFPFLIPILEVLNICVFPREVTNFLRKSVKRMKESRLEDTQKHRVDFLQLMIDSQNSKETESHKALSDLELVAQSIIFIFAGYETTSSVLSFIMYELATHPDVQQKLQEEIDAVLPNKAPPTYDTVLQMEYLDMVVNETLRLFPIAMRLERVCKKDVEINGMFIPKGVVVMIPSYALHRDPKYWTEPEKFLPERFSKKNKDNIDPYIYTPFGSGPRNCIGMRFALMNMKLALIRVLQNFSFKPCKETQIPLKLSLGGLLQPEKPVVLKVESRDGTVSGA

[13] = Activity of cytochrome P450 in human liver microsomes assessed as N-desalkylquetiapine sulfoxide formation measured as high-affinity/low-capacity binding constant by LC-MS analysis
[14] = test system: Liver microsome; assay: Drug metabolism in human liver microsomes assessed as 7-hydroxy-N-desalkylquetiapine formation at 3 uM after 30 mins by mass spectroscopy in presence of CYP2C9 inhibitor sulfaphenazole; details: 0.5 h
[15] = test system: Liver microsome; assay: Drug metabolism in human liver microsomes assessed as 7-hydroxy-N-desalkylquetiapine formation at 3 uM after 30 mins by mass spectroscopy in presence of CYP1A2 inhibitor fluvoxamine; details: 0.5 h
[16] = molecular target: T2, Cytochrome P450 3A4 (Homo sapiens, UniProt P08684); assay: Activity of human CYP3A4 expressed in supersomes co-expressing cytochrome P450 reductase assessed as N-desalkylquetiapine sulfoxide formation after 60 mins by LC-MS analysis; details: recombinant enzyme, 1 h
T2 sequence (P08684 whole entry): as above

[17] = Activity of cytochrome P450 in human liver microsomes assessed as N-desalkylquetiapine sulfoxide formation measured as low-affinity/high-capacity binding constant by LC-MS analysis
[18] = test system: Liver microsome; assay: Drug metabolism in human liver microsomes assessed as N-desalkylquetiapine sulfoxide formation at 3 uM after 30 mins by mass spectroscopy in presence of CYP2C9 inhibitor sulfaphenazole; details: 0.5 h
[19] = test system: Liver microsome; assay: Drug metabolism in human liver microsomes assessed as 7-hydroxy-N-desalkylquetiapine formation at 3 uM after 30 mins by mass spectroscopy in presence of CYP2D6 inhibitor quinidine; details: 0.5 h
[20] = test system: Liver microsome; assay: Drug metabolism in human liver microsomes assessed as N-desalkylquetiapine sulfoxide formation at 3 uM after 30 mins by mass spectroscopy in presence of CYP3A4 inhibitor ketoconazole; details: 0.5 h
[21] = molecular target: T2, Cytochrome P450 3A4; assay: Activity of human CYP3A4 expressed in xenosomes assessed as intrinsic clearance per pmol protein by LC-MS analysis
[22] = molecular target: T2, Cytochrome P450 3A4; assay: Activity of human CYP3A4 expressed in supersomes co-expressing cytochrome P450 reductase assessed as metabolite M3 formation after 60 mins by LC-MS analysis; details: recombinant enzyme, 1 h
[23] = Activity of cytochrome P450 in human liver microsomes assessed as metabolite M3 formation by LC-MS analysis
[24] = test system: Liver microsome; assay: Drug metabolism in human liver microsomes treated with N-desalkylquetiapine at 3 uM after 30 mins by mass spectroscopy in presence of CYP2C9 inhibitor sulfaphenazole; details: 0.5 h
[25] = test system: Liver microsome; assay: Retention time in human liver microsomes after 30 to 60 mins by mass spectroscopy
[26] = test system: Liver microsome; assay: Drug metabolism in human liver microsomes treated with N-desalkylquetiapine at 3 uM after 30 mins by mass spectroscopy in presence of CYP3A4 inhibitor ketoconazole; details: 0.5 h
[27] = test system: Liver microsome; assay: Drug metabolism in human liver microsomes treated with N-desalkylquetiapine at 3 uM after 30 mins by mass spectroscopy; details: 0.5 h
[28] = test system: Liver microsome; assay: Drug metabolism in human liver microsomes treated with N-desalkylquetiapine at 3 uM after 30 mins by mass spectroscopy in presence of CYP2C19 inhibitor benzylnirvanol; details: 0.5 h
[29] = test system: Liver microsome; assay: Drug metabolism in human liver microsomes treated with N-desalkylquetiapine at 3 uM after 30 mins by mass spectroscopy in presence of CYP2D6 inhibitor quinidine; details: 0.5 h
[30] = test system: Liver microsome; assay: Drug metabolism in human liver microsomes treated with N-desalkylquetiapine at 3 uM after 30 mins by mass spectroscopy in presence of CYP1A2 inhibitor fluvoxamine; details: 0.5 h

## c1ccc2c(c1)N=C(N1CCNCC1)c1ccccc1S2
[1]
  Drug metabolism: metabolite_detected
[2]
  Kis: 824 µM
[3]
  Drug metabolism: metabolite_detected
[4]
  metabolised at 1 h: 47%
[5]
  CL: 3 µL/min
[6]
  Drug metabolism: metabolite_detected
[7]
  Drug metabolism: metabolite_detected
[8]
  Drug metabolism: metabolite_detected
[9]
  Drug metabolism: metabolite_detected
[10]
  Km: 110 µM
[11]
  Drug metabolism: metabolite_detected
[12]
  metabolised at 1 h: 6%
[13]
  Km: 15 µM
[14]
  Drug metabolism: metabolite_detected
[15]
  Drug metabolism: metabolite_detected
[16]
  Drug metabolism: metabolite_detected
[17]
  Km: 459 µM
[18]
  Drug metabolism: metabolite_detected
[19]
  Drug metabolism: metabolite_not_detected
[20]
  Drug metabolism: metabolite_not_detected
[21]
  CL: 0.25 µL/min
[22]
  Drug metabolism: metabolite_detected
[23]
  Km: 199 µM

## [O-][S+]1c2ccccc2N=C(N2CCNCC2)c2ccccc21 (configuration not stated)
[24]
  Drug metabolism: metabolite_detected
[25]
  Retention_time: 3.98 min
[26]
  Drug metabolism: metabolite_not_detected
[27]
  Drug metabolism: metabolite_detected
[28]
  Drug metabolism: metabolite_detected
[29]
  Drug metabolism: metabolite_not_detected
[30]
  Drug metabolism: metabolite_detected

## Oc1ccc2c(c1)Sc1ccccc1C(N1CCNCC1)=N2
[24]
  Drug metabolism: metabolite_detected
[25]
  Retention_time: 4.31 min
[26]
  Drug metabolism: metabolite_not_detected
[27]
  Drug metabolism: metabolite_detected
[28]
  Drug metabolism: metabolite_detected
[29]
  Drug metabolism: metabolite_not_detected
[30]
  Drug metabolism: metabolite_detected
